Common to all, as to type: cell-based
In one test the test system is Staphylococcus Aureus. In words: MIC by Broth Dilution Method against Staphylococcus Aureus. The conditions noted are these: 37° C., visible growth. The protocol:
Antimicrobial activity of several compounds was measured by determining the minimum inhibitory concentration (MIC). MIC is defined as the lowest concentration of an antimicrobial agent that will inhibit the growth of a microorganism and is usually expressed as ppm (μg/mL). MIC was determined by the Broth Dilution Method. To determine MIC a series of culture tubes was prepared, each tube containing the growth medium (Broth) with a decreasing concentration of the antimicrobial agent. The tubes were then inoculated with the test organism and incubated at 37° C. After incubation, tubes were visually examined for growth as indicated by turbidity. The lowest concentration that prevented visible growth is the MIC.

A short description of test [1]: MIC in multiwell plate broth dilution, isolate SA22. To be noted: Staphylococcus aureus. The method, then: (§1) 1. The following Staphylococcus Aureus isolates were tested:
(§2) 2. 2-t-butyl-5-(4-t-butylphenyl)-phenol (DTBBP) was dissolved in ethanol to a concentration of 1000 μg/mL. Higher concentrations could not be tested due to the formation of precipitate in the broth when higher concentrations were attempted.
(§3) 3. 100 μl of the 32 μg/ml solution added to column 12 of the multiwell plates, 50 μl M—H broth to each of the other columns. 50 μl removed from 12 to 11 for 1:1 dilution, continued to column 2. 50 μl removed from column 2 and discarded. Column 1 contained no drug. To control for the amount of ethanol added to each well, additional wells were set up as described above without DTBBP but with the same amount of ethanol as the test wells.
(§4) 4. 50 μl bacteria added to each well going from column 1 to column 12. All isolates run in duplicate with and without DTBBP.
(§5) 5. Addition of 50 μl bacteria to 50 μl drug dilutes both 1:1 for a final bacterial density of 5×10^5/ml and drug concentrations of:
(§6) 6. Incubated overnight at 37° C.

Test [2] concerns Staphylococcus Aureus isolate SA76 (resistant to methicillin, azithromycin, clarithromycin, erythromycin, ciprofloxacin). In words: MIC in multiwell plate broth dilution, isolate SA76. The protocol:
as §1, §2, §3, §4, §5, §6

The test system of test [3] is Staphylococcus Aureus isolate SA100 (resistant to methicillin only). In words: MIC in multiwell plate broth dilution, isolate SA100. The method, then: as §1, §2, §3, §4, §5, §6
For test [4], the system named is Staphylococcus Aureus isolate SA6 (susceptible to all drugs). In words: MIC in multiwell plate broth dilution, isolate SA6. The protocol:
as §1, §2, §3, §4, §5, §6

Test [5] concerns Staphylococcus Aureus isolate SA15 (susceptible). In words: MIC in multiwell plate broth dilution, isolate SA15. The protocol: as §1, §2, §3, §4, §5, §6
In test [6] the test system is Staphylococcus Aureus isolate SA124 (susceptible). Nature of the test: MIC in multiwell plate broth dilution, isolate SA124. The protocol: as §1, §2, §3, §4, §5, §6

Converted amounts (≈) assume the structure as drawn. Like-named read-outs stand apart in the source and are kept apart here. Where only a bound is given, the exact number is not on record here.

`CCCCCCCCc1ccc(O)c(C(C)(C)C)c1` [2-t-butyl-4-n-octylphenol] showed a minimum inhibitory concentration (MIC) against Staphylococcus Aureus of less than 10 µg/mL.
On to `CC(C)(C)c1cc(C2CCCCC2)ccc1O` [2-t-butyl-4-cyclohexylphenol], for which the minimal inhibitory concentration (MIC) against Staphylococcus Aureus was less than 10 µg/mL.
Same read-out and setting: in the case of `CC(C)(C)c1ccc(C2CCC(C(C)(C)C)CC2)cc1O` (stereo not shown) [2-t-butyl-5-(4-t-butylcyclohexyl)-phenol] it was less than 10 µg/mL.
In the case of `CC(C)(C)c1ccc(-c2ccc(C(C)(C)C)c(O)c2)cc1` [DTBBP, 2-t-butyl-5-(4-t-butylphenyl)-phenol], the MIC was less than 1 µg/mL against Staphylococcus Aureus; 2 µg/mL (≈ 7.08 µM) in test [1] (isolate SA22, 24 hr, read-out: DTBBP MIC (24 hr)); 2 µg/mL (≈ 7.08 µM) in test [1] (isolate SA22, 48 hr, read-out: DTBBP MIC (48 hr)); 2 µg/mL (≈ 7.08 µM) in test [2] (isolate SA76, 24 hr, read-out: DTBBP MIC (24 hr)); 4 µg/mL (≈ 14.2 µM) in test [2] (isolate SA76, 48 hr, read-out: DTBBP MIC (48 hr)); 4 µg/mL (≈ 14.2 µM) in test [3] (isolate SA100, 24 hr, read-out: DTBBP MIC (24 hr)). For the same compound, the MIC in test [3] (isolate SA100, 48 hr, read-out: DTBBP MIC (48 hr)) turned out to be 4 µg/mL (≈ 14.2 µM); in test [4] (isolate SA6, 24 hr, read-out: DTBBP MIC (24 hr)), 2 µg/mL (≈ 7.08 µM); in test [4] (isolate SA6, 48 hr, read-out: DTBBP MIC (48 hr)), 4 µg/mL (≈ 14.2 µM); in test [5] (isolate SA15, 24 hr, read-out: DTBBP MIC (24 hr)) it was 2 µg/mL (≈ 7.08 µM); in test [5] (isolate SA15, 48 hr, read-out: DTBBP MIC (48 hr)), 4 µg/mL (≈ 14.2 µM); in test [6] (isolate SA124, 24 hr, read-out: DTBBP MIC (24 hr)), 2 µg/mL (≈ 7.08 µM). Besides, the minimal inhibitory concentration (MIC) in test [6] (isolate SA124, 48 hr, read-out: DTBBP MIC (48 hr)) amounted to 4 µg/mL (≈ 14.2 µM).

(Values after US6403652B1, “Method and composition” (Colgate-Palmolive Company, priority 2000, dated 2002).)
